Converted amounts (≈) assume the structure as drawn. Where two headings read alike, the source gives them in different places.
Experiments:
shaved rat skin = type: in vitro ADME, Wistar rats
Excerpt: All the experiments performed using animals were approved by Animal Research Ethics committee of the University of KwaZulu-Natal. In vivo study, the protocol was approved by Animal Research Ethics committee of the University of KwaZulu-Natal. The protocol approval numbers for in vivo skin infection model and transdermal permeation studies were AREC/104/015PD and AREC/054/14/Animal respectively. BALB/c mice and Wistar rats were used for in vivo skin infection model and transdermal permeation study respectively. Animals used in the study were procured from Biomedical Resource Unit of University of KwaZulu-Natal, Westville, Durban, South Africa.
All the intermediate, ester derivatives (MSAPE, MOAPE, MLAPE, MLLAPE, DSAPE, DOAPE, DLAPE, DLLAPE, TSAPE, TOAPE, TLAPE and TLLAPE) were evaluated as potential CPEs for transdermal drug delivery using tenofovir (TNF) as a model drug. The experiments were performed on shaved rat skin using Franz diffusion cells. TNF gels were prepared using hydroxypropyl methyl cellulose, milli-Q water and 1% w/w of compounds of formula 1. The permeability of TNF in the absence of enhancers was performed as a control. […] TNF was able to permeate the skin without any permeation enhancer with a steady state flux value 040.91±04.93 μg cm^−2 h^−1 (Table 6).

[1] = tested on: Staphylococcus aureus (SA); assay: In-vitro antibacterial activity, MIC by broth dilution; type: cell-based; details: S. aureus
Method: (§1) The minimum inhibitory concentration (MIC) values for VCM loaded liposomes were determined against Staphylococcus aureus (SA) and Methicillin-resistant Staphylococcus aureus (MRSA) using broth dilution method (Materials Science and Engineering: C, Volume 61, 2016, Pages 616-630). The stock bacterial cultures were grown in Mueller-Hinton Broth (MHB) 24 h before the test at 37° C.
(§2) Bacterial suspensions were prepared equal to 1.5×10^8 CFU ml^−1 as half mcFarland. Serial dilutions of VCM loaded liposomal formulations were prepared in MHB broth then added to the bacterial culture, mixed properly and incubated at 37° C. for 24 hours. […] The study continued for four days to determine the sustained release activity of encapsulated VCM. Experiments were performed in triplicate and drug-free liposomes, bare VCM solution and VCM loaded liposomes without Ph-responsive lipid were used as controls.

[2] = tested on: Methicillin-resistant Staphylococcus aureus (MRSA); assay: as above; type: cell-based
Method: as §1, §2

[3] = In-vitro VCM release from liposomes as a function of pH; type: physicochemical
Method: In-vitro drug release of VCM from the pH-responsive liposomes of the invention is illustrated in FIG. 6. At all-time intervals, VCM release at acidic pH (6.5) was higher than at physiological pH of 7.4. […] For further confirmation, the mean dissolution time (MDT 90%) for 90% of drug release was calculated from in-vitro release data. […] The MDT value is inversely proportional to the release rate, i.e. lower the MDT higher the release rate and vice versa. […] The higher drug release rate at the acidic environment from liposomes can be attributed to the alteration in the lipid bilayer orientation and permeability caused by conformational changes at the head group and hydrophobic tails of the PH-responsive lipid at low pH.

[4] = both pH values, study over four days
[5] = pH 6.5, DAY - I (24 h), listed as bare VCM
[6] = pH 7.4, DAY - I (24 h), listed as bare VCM

Compound | Cumulative amount of TNF permeated (shaved rat skin; Wistar, rat, 6 h, 1 % w/w) [μg cm^−2] | ER (enhancement ratio) (shaved rat skin; Wistar, rat, 6 h, 1 % w/w) | Permeability (P × 10^−2) of TNF (shaved rat skin; Wistar, rat, 6 h, 1 % w/w) | further results
CCCCCCCC/C=C\CCCCCCCC(=O)OCC(COC(=O)CCCCCCC/C=C\CCCCCCCC)NCCC(=O)OC(C)(C)C [DOAPE, 2-((3-(tert-butoxy)-3-oxopropyl)amino)propane-1,3-diyl dioleate] | 424.95 ± 59.84 | 1.71 | 0.350 ± 0.05 | 
CC/C=C\C/C=C\C/C=C\CCCCCCCC(=O)OCCNCCC(=O)OC(C)(C)C [MLLAPE, 2-((3-(tert-butoxy)-3-oxopropyl)amino)ethyl (9Z,12Z,15Z)-octadeca-9,12,15-trienoate] | 945.88 ± 44.93 | 3.70 | 0.758 ± 0.04 | 
CCCCC/C=C\C/C=C\CCCCCCCC(=O)OCCNCCC(=O)OC(C)(C)C [MLAPE, 2-((3-(tert-butoxy)-3-oxopropyl)amino)ethyl (9Z,12Z)-octadeca-9,12-dienoate] | 574.97 ± 74.09 | 2.25 | 0.460 ± 0.06 | 
C[C@H](Cn1cnc2c(N)ncnc21)OCP(=O)(O)O [TNF, tenofovir, reference compound] |  |  |  | Cumulative amount of TNF permeated (shaved rat skin): 253.10±23.84 μg cm^−2
CCCCCCCCCCCCCCCCCC(=O)OCC(COC(=O)CCCCCCCCCCCCCCCCC)(COC(=O)CCCCCCCCCCCCCCCCC)NCCC(=O)OC(C)(C)C [TSAPE, 2-((3-(tert-butoxy)-3-oxopropyl)amino)-2-((stearoyloxy)methyl) propane-1,3-diyl distearate] | 531.70 ± 23.87 | 2.09 | 0.428 ± 0.02 | 
CCCCCCCC/C=C/CCCCCCCC(=O)OCC(COC(=O)CCCCCCC/C=C/CCCCCCCC)(COC(=O)CCCCCCC/C=C/CCCCCCCC)NCCC(=O)OC(C)(C)C [TOAPE, 2-((3-(tert-butoxy)-3-oxopropyl)amino)-2-((((Z)-octadec-9-enoyl)oxy)methyl)propane-1,3-diyl(9Z,9′Z)-bis(octadec-9-enoate)] | 342.3 ± 26.94 | 1.50 | 0.306 ± 0.02 | 
CCCCC/C=C\C/C=C\CCCCCCCC(=O)OCC(COC(=O)CCCCCCC/C=C\C/C=C\CCCCC)NCCC(=O)OC(C)(C)C [DLAPE, 2-((3-(tert-butoxy)-3-oxopropyl)amino)propane-1,3-diyl (9Z,9′Z,12Z,12′Z)-bis(octadeca-9,12-dienoate)] | 1074.62 ± 61.12 | 3.95 | 0.809 ± 0.05 | 
CCCCCCCCCCCCCCCCCC(=O)OCCNCCC(=O)OC(C)(C)C [MSAPE, 2-((3-(tert-butoxy)-3-oxopropyl)amino)ethyl stearate] | 407.12 ± 66.51 | 1.55 | 0.317 ± 0.06 | 
CCCCCCCCCCCCCCCCCC(=O)OCC(COC(=O)CCCCCCCCCCCCCCCCC)NCCC(=O)OC(C)(C)C [DSAPE, 2-((3-(tert-butoxy)-3-oxopropyl)amino)propane-1,3-diyl distearate] | 336.1 ± 25.67 | 1.40 | 0.286 ± 0.02 | 
CCCCCCCC/C=C\CCCCCCCC(=O)OCCNCCC(=O)OC(C)(C)C [MOAPE, 2-((3-(tert-butoxy)-3-oxopropyl)amino)ethyl oleate] | 1594.06 ± 198.92 | 5.58 | 1.142 ± 0.16 | 
CN[C@H](CC(C)C)C(=O)N[C@H]1C(=O)N[C@@H](CC(N)=O)C(=O)N[C@H]2C(=O)N[C@H]3C(=O)N[C@H](C(=O)N[C@H](C(=O)O)c4cc(O)cc(O)c4-c4cc3ccc4O)[C@H](O)c3ccc(c(Cl)c3)Oc3cc2cc(c3O[C@@H]2O[C@H](CO)[C@@H](O)[C@H](O)[C@H]2O[C@H]2C[C@](C)(N)[C@H](O)[C@H](C)O2)Oc2ccc(cc2Cl)[C@H]1O [Bare VCM, Vancomycin] |  |  |  | time up to which antibacterial activity was exhibited [1, 4]: ≤ 24 h; MIC ([1]; pH 6.5, DAY - I (24 h)): 7.81 mg/L (≈ 5.39 µM); MIC [1, 5]: 1.95 mg/L (≈ 1.35 µM); MIC ([1]; pH 7.4, DAY - I (24 h)): 3.91 mg/L (≈ 2.7 µM); MIC [1, 6]: 8.79 mg/L (≈ 6.07 µM); time up to which antibacterial activity was exhibited [2, 4]: ≤ 24 h; MIC ([2]; pH 6.5, DAY - I (24 h)): 15.62 mg/L (≈ 10.8 µM); MIC [2, 5]: 0.98 mg/L (≈ 0.676 µM); MIC ([2]; pH 7.4, DAY - I (24 h)): 7.81 mg/L (≈ 5.39 µM); MIC [2, 6]: 0.98 mg/L (≈ 0.676 µM); MDT90% Mean dissolution time calculated for 90% of VCM release ([3]; pH 5.5): 6.064 h; MDT90% Mean dissolution time calculated for 90% of VCM release ([3]; pH 6.5): 4.173 h; MDT90% Mean dissolution time calculated for 90% of VCM release ([3]; pH 7.4): 2.690 h
CC/C=C\C/C=C\C/C=C\CCCCCCCC(=O)OCC(COC(=O)CCCCCCC/C=C\C/C=C\C/C=C\CC)NCCC(=O)OC(C)(C)C [DLLAPE, 2-((3-(tert-butoxy)-3-oxopropyl)amino)propane-1,3-diyl (9Z,9′Z,12Z,12′Z,15Z,15′Z)-bis(octadeca-9,12,15-trienoate)] | 400.37 ± 18.92 | 1.65 | 0.337 ± 0.01 | 
